Values of other authors, collected in article PMC5340309 (Biomacromolecules, 2016).

Assays:
Details in all cases: included for comparison
[1] = tested on: P. aeruginosa (ATCC27853)
[2] = tested on: Methicillin-resistant S. epidermidis (MRSE, RP62A)
[3] = tested on: K. pneumoniae (ATCC 13383)
[4] = tested on: Methicillin-resistant S. aureus (MRSA, ATCC 33591)

Substance: pexiganan
- MIC P. aeruginosa (Gram−) [1]: 16 µg/mL
- MIC MRSE (Gram+) [2]: 8 µg/mL
- MIC K. pneumonia (Gram−) [3]: 32 µg/mL
- MIC MRSA (Gram+) [4]: 16 µg/mL
